Reference: patent publication US4201784A, “Substituted 2-[2'-(5"-nitrofuryl-2")vinyl-and 4'-(5"-nitrofuryl-2"-1,3-butadieryl]quinoline-4-carboxylic acid amides and salts thereof” (Institut Organicheskogo Sinteza Akademii Nauk Latviiskoi SSR, priority 1977, dated 1980)
Where two headings read alike, the source gives them in different places.

Tests used:
[1] = tested on: Ehrlich ascitic tumor; test: Influence of fluorafur on antitumor activity of giniquine, Ehrlich ascitic tumor; assay type: in vivo, mice
Method: In some experiments the influence of the known preparation fluorofur on the antitumoral activity of giniquine was studied. […] The tests were made on Ehrlich ascitic tumor. The preparations were injected 1,2,3,4 and 7 days after the implantation of tumor. Giniquine was injected intraperitoneally and fluorafur-subcutaneously.
giniquine was injected intraperitoneally, and fluorafursubcutaneously.

[2] = tested on: lymphatic leukemia L 5178; test: Antitumor activity, life prolongation, lymphatic leukemia L 5178; assay type: in vivo, mice
Method: (§1) Apart from the tests on Ehrlich ascitic tumor, giniquine was studied on twelve more inoculated tumors. Seven tumors (melanoma B16, sarcoma AK, large intestine carcinoma acatol-1, sarcoma 180, adenocarcinoma 755, Lewis lung carcinoma and sarcoma 37) were inoculated subcutaneously with 50 mg of tumoral cells per mouse. Four tumors (lymphatic leukemies L 5178, L 5178Y, L 1210 and P-388) were inoculated intraperitoneally with 10^6 cells per mouse. One tumor (La, hemocytoblastosis) was inoculated intraperitoneally by injecting 50 mg of cell suspension of spleen and liver of mice suffering La hemocytoblastosis, per mouse. Giniquine was injected intraperitoneally five times for seven days: 1,2,3,4,7 days or 3,4,5,6,7 days after the implantation of tumor. The rate of deceleration of the tumor growth was established 14 days after the ultimate injection of giniquine; life of test animals was recorded for 60 days.

[3] = tested on: sarcoma 180; test: Antitumor activity, sarcoma 180; assay type: in vivo, mice
Method: as §1

[4] = LD50, intact mice; conditions: mouse, in vivo, ip, intraperitoneal
[5] = tested on: lymphatic leukemia L 5178Y; test: Antitumor activity, lymphatic leukemia L 5178Y; assay type: in vivo, mice
Method: as §1

[6] = tested on: normal tissues (mucous membrane of small intestine, liver, spleen, brain, kidneys, lungs); test: In vivo biosynthesis of macromolecules in normal tissues; set-up: species or system mice; conditions: 24 hours, 28 mg/kg
Method: (§2) The influence of giniquine on biosynthetic processes in the in vivo tests was studied on common white mice of a mass of 25-35 g with Ehrlich ascitic tumor.
The mice were divided into two groups. The animals in the first group were given a single injection of the preparation in differing doses, and the animals in the second group were treated with distilled water. Three series of experiments were conducted. […]
(§3) Tumor cells and tissue homogenates for precipitation of nucleic acids were treated with 57% perchloric acid (10:1). […] Radioactivity of DNA and RNA fractions was measured by means of a liquid scintillation counter. The quantity of DNA and RNA was determined by spectrophotometry: the quantity of DNA was determined with diphenylamine, and RNA- with orcin.
(§4) To prepare protein hydrolysate, the suspension of tumoral cells and homogenates of normal tissues were treated with cool 10% trichloracetic acid (1:4), with subsequent centrifuging at 2000 g for ten minutes. […] The radioactivity was measured by means of a liquid scintillation counter. Protein was quantitatively determined by spectrophotometry using a microbiuret reaction.

[7] = tested on: Liver; test: In vivo biosynthesis of DNA, RNA and protein in liver; set-up: species or system mice; conditions: for Incorporation of 2-^14 C-leucine in protein / Incorporation of 2-^14 C-thymidine in DNA: intraperitoneal 100 mg/kg; for inhibition at 100 mg/kg: Mus musculus, three hours
Method: as §2
(§5) The mice were divided into two groups. The animals in the first group were given a single injection of the preparation in differing doses, and the animals in the second group were treated with distilled water. Three series of experiments were conducted. In the first series of tests (16 mice) the preparation was injected in a dose of 100 mg/kg ([…] dose), and the animals were decapitated one hour after the injection; in the second test series (16 mice) the animals were slaughtered 3 hours after the injection with other conditions being the same. In the third test series (35 mice) the influence of giniquine on plastic metabolism in tumor cells and normal tissues was studied 24 hours after the injection of a 0.33% solution of the preparation in a dose of 28 mg/kg (therapeutical dose).
(§6) Labeled precursors of nucleic acids and protein were injected intraperitoneally one hour before the slaughter of the animals (50 μc/100 g). Ascitic fluid, as well as liver and spleen, mucous membrane of small intestine, brain, kidneys and lungs were taken for analysis. 10% suspension was prepared from tumor cells, and 10% homogenates were prepared from tissues in a physiological solution.
(§7) Tumor cells and tissue homogenates for precipitation of nucleic acids were treated with 57% perchloric acid (10:1). Acid-soluble fraction was removed by washing the precipitate twice with 5 ml of 5% perchloic acid with subsequent centrifuging at 2000 g. Nucleic acids were hydrolyzed by the Schneider method. Radioactivity of DNA and RNA fractions was measured by means of a liquid scintillation counter. The quantity of DNA and RNA was determined by spectrophotometry: the quantity of DNA was determined with diphenylamine, and RNA- with orcin.
(§8) To prepare protein hydrolysate, the suspension of tumoral cells and homogenates of normal tissues were treated with cool 10% trichloracetic acid (1:4), with subsequent centrifuging at 2000 g for ten minutes. The precipitate was washed twice with 5 ml of 10% trichloracetic acid. Lipoids were removed by a consecutive treatment of the precipitate with ethanol, saturated solution of sodium acetate, a mixture of ethanol and ether (3:1) and ether. To prepare protein hyhdrolysate, 4 ml of 0.3N KOH were added to the precipitate, and the mixture was placed into a thermostatic chamber at 37° C. for 60 minutes. The radioactivity was measured by means of a liquid scintillation counter. Protein was quantitatively determined by spectrophotometry using a microbiuret reaction.

[8] = tested on: lymphatic leukemia L-1210; test: Antitumor activity, lymphatic leukemia L-1210; assay type: in vivo, mice
Method: as §1

[9] = tested on: Lungs; test: In vivo biosynthesis of DNA, RNA and protein in lungs; set-up: species or system mice; conditions: 24 hours, intraperitoneal 28 mg/kg
Method: as §2, §5, §6, §3, §4

[10] = tested on: Spleen; test: In vivo biosynthesis of DNA, RNA and protein in spleen; set-up: species or system mice; conditions: for Incorporation of 2-^14 C-leucine in protein / Incorporation of 2-^14 C-thymidine in DNA: intraperitoneal 100 mg/kg
Method: as §2, §5, §6, §7, §8

[11] = 24 hours, intraperitoneal 28 mg/kg

CCN(CC)CCCC(C)NC(=O)c1cc(C=Cc2ccc([N+](=O)[O-])o2)nc2ccccc12 (stereo not drawn) [giniquine, 2-[2'-(5"-nitrofuryl-2")vinyl]quinoline-4-carboxylic acid (α-methyl-δ-diethylaminobutyl)amide triphosphate]
Life prolongation ([1]; Test No. 1, giniquine 3.6 mg/kg daily): 55%
Life prolongation ([1]; Test No. 1, giniquine 6.0 mg/kg daily): 67%
Life prolongation ([1]; Test No. 1, giniquine 10.0 mg/kg daily): 38%
Life prolongation ([1]; Test No. 1, giniquine 17.0 mg/kg daily): -5%
Life prolongation ([1]; Test No. 2, giniquine 3.6 mg/kg daily): 45%
Life prolongation ([1]; Test No. 2, giniquine 6.0 mg/kg daily): 98%
Life prolongation ([1]; Test No. 2, giniquine 10.0 mg/kg daily): 5%
Life prolongation ([1]; Test No. 2, giniquine 17.0 mg/kg daily): -48%
Max. life prolong. ([2]; common female mice, intraperitoneal, days 1,2,3,4,7, optimum daily dose 10.0 mg/kg): 30%
antiblastic activity / sensitivity (in words) ([2]; lymphatic leukemia L 5178): slight antitumor effect
Deceleration of tumor growth ([3]; common female mice, intraperitoneal, days 3,4,5,6,7, optim. daily dose 6.0 mg/kg): 37%
Max. prolongation of life ([3]; common female mice, intraperitoneal, days 3,4,5,6,7, optim. daily dose 10.0 mg/kg): 23%
antitumor effect / sensitivity (in words) ([3]; sarcoma 180): slight antitumor effect
LD50 ([4]; single injection, female): 33 mg/kg
LD50 ([4]; single injection, male): 30 mg/kg
LD50 ([4]; ten injections, female): 8 mg/kg
LD50 ([4]; ten injections, male): 7.3 mg/kg
Max. life prolong. ([5]; BDF1 female mice, intraperitoneal, days 1,2,3,4,7, optimum daily dose 6.0 mg/kg): 5%
sensitivity (in words) ([5]; L-5178Y): practically insensitive
biosynthesis processes in normal tissues (in words) [6]: a stimulation of biosynthesis processes
Incorporation of 2-^14 C-leucine in protein ([7]; 1 h): 127.0 % of control
Incorporation of 2-^14 C-thymidine in DNA ([7]; 1 h): 106.0 % of control
Incorporation of 2-^14 C-leucine in protein ([7]; 3 h): 96.0 % of control
Incorporation of 2-^14 C-thymidine in DNA ([7]; 3 h): 93.0 % of control
Incorporation of specific precursors, DNA [7, 11]: 190.0 % of control
Incorporation of specific precursors, Protein [7, 11]: 112.0 % of control
Incorporation of specific precursors, RNA [7, 11]: 124.0 % of control
inhibition at 100 mg/kg ([7]; 3 h, 100 mg/kg, read-out: inhibition of biosynthesis of DNA): 7%
inhibition at 100 mg/kg ([7]; 3 h, 100 mg/kg, read-out: inhibition of biosynthesis of protein): 4%
inhibition of biosynthesis of protein (in words) ([7]; one hour, 100 mg/kg): not observed or inappreciable
stimulation of biosynthesis of DNA ([7]; one hour, 100 mg/kg): 6%
Max. life prolong. ([8]; BDF1 male mice, intraperitoneal, days 1,2,3,4,7, optimum daily dose 6.0 mg/kg): 15%
sensitivity (in words) ([8]; L-1210): practically insensitive
Incorporation of specific precursors, DNA [9]: 255.0 % of control
Incorporation of specific precursors, Protein [9]: 102.0 % of control
Incorporation of specific precursors, RNA [9]: 124.0 % of control
Incorporation of 2-^14 C-leucine in protein ([10]; 1 h): 97.0 % of control
Incorporation of 2-^14 C-thymidine in DNA ([10]; 1 h): 120.0 % of control
Incorporation of 2-^14 C-leucine in protein ([10]; 3 h): 40.0 % of control
Incorporation of 2-^14 C-thymidine in DNA ([10]; 3 h): 116.0 % of control
Incorporation of specific precursors, DNA [10, 11]: 330.0 % of control
Incorporation of specific precursors, Protein [10, 11]: 93.0 % of control
Incorporation of specific precursors, RNA [10, 11]: 162.0 % of control
inhibition at 100 mg/kg ([10]; Mus musculus, 3 h, three hours, 100 mg/kg): 60%
inhibition of biosynthesis of protein (in words) ([10]; one hour, 100 mg/kg): not observed or inappreciable
stimulation of biosynthesis of DNA ([10]; one hour, 100 mg/kg): 20%
stimulation of biosynthesis of DNA ([10]; three hours, 100 mg/kg): 16%
